Data on three compounds can be found in publication PMC9170845, “Development of a multi faceted platform containing a tetrazine, fluorophore and chelator: synthesis, characterization, radiolabeling, and immuno-SPECT imaging” (EJNMMI Radiopharmacy and Chemistry, 2022).

The structures appear in SMILES notation.

Data set [1] is described as follows: Fluorescence characterization (excitation/emission spectra, absolute quantum yield). The class given is physicochemical. The note with it: in DMSO (stated for 13); for fluorescence quantum yield (Φfl): absolute PLQY, integrating sphere. The procedure:
Following the synthesis of the final scaffold, the excitation and emission spectrum, and quantum yield were measured for the uncomplexed scaffold DO3A-BODIPY-Tz (13) in DMSO (Fig. 1), where an excitation λmax = 524 nm, emission λmax = 537 nm and a fluorescence quantum yield (Φfl) of 0.38 was observed. There are reports of tetrazine residues deactivating the fluorescence properties of fluorophores when they belong to the same molecular entity. However, once the tetrazine is conjugated, these properties are reinstated (Oliveira et al. [2017]; Wu and Devaraj [2018]). To ensure this, 13 was conjugated to TCO-NHS 16 in DMSO (Scheme 2). A distinct colour change from red to orange was observed which clearly indicated tetrazine consumption. The fluorescence properties of 17 (see Additional file1: Fig. S36) were then measured and compared to 13 and 4,4′-dicyano-BODIPY (7) (see Additional file1: Fig. S35; λmax excitation = 527 nm, λmax emission = 541 nm, Φfl = 0.87).
Luminescence experiments were conducted on an Edinburgh Instruments FS5 spectrometer using the SC-05 cassette. All spectra were corrected for instrument response. Excitation and emission monochromator bandwidths for 7 and 17 were set to 1 nm, and 1.5 nm for 13. The emission spectrum for 13 was collected with the aid of a Knight Optical 395 nm long-pass filter to reduce the effects of scattering. Solution-based absolute photoluminescent quantum yields (PLQY) were obtained for 7, 13, and 17 via the SC-30 Integrating Sphere cassette with excitation wavelengths of 380, 490, and 378 nm respectively.

Data set [2] can be described thus: Stability of cyano BODIPY core in acidic conditions (TFA in CDCl3, 1H NMR). The format is physicochemical. To be noted: treated with TFA in CDCl3, monitored via 1H NMR, 11 days. The text has this:
Initially our scaffold design comprised of the conventional 4,4′-difluoro-BODIPY fluorophore (Additional file1: Scheme S1). Despite numerous attempts and alternative strategies for completing the synthesis of the platform using the F-BODIPY fluorophore, the route was unsuccessful resulting in either BF2 core removal or complete decomposition (see Additional File), despite there being reports in the literature of similar transformations being successful in the presence of F-BODIPY dyes (Alnajjar et al. [2018]; Tsuji et al. [2018]; Sui et al. [2016]; Compton et al. [2019]; Ieda et al. [2014]). […] The increased stability is believed to be a result of enhanced aromaticity, decreased charge density on the boron, and the formation of a stable 4,4′-dicyano-BODIPY-TFA complex. To the best of our knowledge there has only been one example of an investigation incorporating 4,4′-dicyano-BODIPYs into a chemical synthesis with protecting groups (Uriel et al. [2020]). To reassure the stability of the cyano BODIPY core in acidic conditions, 7 was treated with TFA in CDCl3 and monitored via ^1H NMR (see Additional file1: Fig. S11) (Wang et al. [2018]). […] An alternative route was initially investigated, where the Cbz on 9 underwent hydrogenolysis followed by insertion of the chelator, deprotection, then insertion of the tetrazine. […]

On to `CCC1=C(C)C2=C(c3ccc(C(=O)ON4C(=O)CCC4=O)cc3)c3c(C)c(CC)c(C)n3[B-](C#N)(C#N)[N+]2=C1C` [compound 7, 4,4-dicyano-8-(4-(succinimidocarboxy)phenyl)-2,6-diethyl-1,3,5,7-tetramethyl-4-bora-3a,4a-diaza-s-indacene], for which, in data set [1], the “emission λmax” value is recorded as 541 nm, the “excitation λmax” value was 527 nm and the “fluorescence quantum yield (Φfl)” value is on record as 0.87. Further, the “Stability in acidic conditions” value in data set [2] is “no indication of instability even after 11 days”.

For `CCC1=C(C)C2=C(c3ccc(C(=O)NC(CCCCNC(=O)Cc4ccc(-c5nncnn5)cc4)C(=O)NC(CCCCNC(=O)CN4CCN(CC(=O)O)CCN(CC(=O)O)CCN(CC(=O)O)CC4)C(=O)O)cc3)c3c(C)c(CC)c(C)n3[B-](C#N)(C#N)[N+]2=C1C` [compound 13, 2,2′,2″-(10-(2-(((S)-5-((S)-6-(2-(4-(1,2,4,5-tetrazin-3-yl)phenyl)acetamido)-2-(4-(4,4-dicyano-2,6-diethyl-1,3,5,7-tetramethyl-4-bora-3a,4a-diaza-s-indacen-8-yl)benzamido)hexanamido)-5-carboxypentyl)amino)-2-oxoethyl)-1,4,7,10-tetraazacyclododecane-1,4,7-triyl)triacetic acid], in data set [1], the “emission λmax” value is given as 537 nm, the “excitation λmax” value is listed as 524 nm and the “fluorescence quantum yield (Φfl)” value is listed as 0.38.

As for `CCC1=C(C)C2=C(c3ccc(C(=O)NC(CCCCNC(=O)Cc4ccc(C5=NNC=C6CCC(OC(=O)ON7C(=O)CCC7=O)CCCC65)cc4)C(=O)NC(CCCCNC(=O)CN4CCN(CC(=O)O)CCN(CC(=O)O)CCN(CC(=O)O)CC4)C(=O)O)cc3)c3c(C)c(CC)c(C)n3[B-](C#N)(C#N)[N+]2=C1C` (stereo not shown) [compound 17], in data set [1], the “emission λmax” value is reported as 537 nm, the “excitation λmax” value came to 525 nm and the “fluorescence quantum yield (Φfl)” value came to 0.79.
